The values that follow come from PubChem BioAssay (NCI).

The structures appear in SMILES notation. Several values for one entry are separate records, joined by “and”; a condition that tells them apart may be missing. Equal values may be shown once.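 Results reflect a 48-hour exposure of cells in 96-well plates to compound at five concentrations. Here, GI50 denotes the concentration required for 50% inhibition of growth. TGI: total growth inhibition.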

Common to all, as to test: NCI-60 cell line screen, 48 h
For experiment [1], the system named is EKVX NSCLC.
The test system of experiment [2] is HCT-116 colon.
Experiment [3] relates to SK-OV-3 ovarian.
For experiment [4], the system named is HT29 colon.
For experiment [5], the system named is HOP-62 NSCLC.
For experiment [6], the system named is SW-620 colon.
Experiment [7] deals with M14 melanoma.
Experiment [8] has as its system MDA-MB-435.
Experiment [9] relates to SF-268 CNS.
For experiment [10], the system named is HCC-2998 colon.

For `O=c1c(-c2ccccc2)coc2cc(OC/C(=N/O)c3ccc(F)cc3)ccc12`, the GI50 was 8.59 µM in experiment [1]; 16 µM in experiment [2]; 15.4 µM in [3]; 27.8 µM in experiment [4]; 27 µM in experiment [5]; 17.1 µM in experiment [6]. Further, the results for the GI50 in [7], in [8] and in [9] were 17.5 µM, 20.9 µM and 21.5 µM, respectively. Further, the TGI is 26.1 µM in experiment [1]; 47.7 µM in [2]; 35.8 µM in experiment [3]; over 100 µM in [4]; 53.5 µM in experiment [5]; 33.4 µM in [6]. Further, the TGI in experiment [7] stood at 41.3 µM; in experiment [8] it was 97.7 µM; in experiment [9], 50.6 µM.
Regarding `Cc1oc2c(c1C(=O)N1CC[C@@H](N)C1)C(=O)c1c(c(O)c3ccccc3c1O)C2=O`, the GI50 in [10] is 3.11 µM; in experiment [2] it was 1.28 µM; in experiment [3], 1.1 µM; in [4] it was 1.68 µM; in experiment [5], 0.51 µM; in experiment [6], 1.08 µM. Moreover, the GI50 in [7] is 1.41 µM; in experiment [8], 2.58 µM; in experiment [9], 1.83 µM. Further, the TGI in experiment [10] stood at 11.7 µM; in experiment [2] it was 4.59 µM; in [3] it was 7.86 µM; in experiment [4], 6.66 µM; in [5], 4.11 µM; in experiment [6] it was 7.28 µM. Besides, the results for the TGI in [7], in [8] and in [9] were 2.96 µM, 10.1 µM and 10.6 µM, respectively.
For the molecule `COc1cccc2c1[C@H]1CO[C@H]3C4C[C@H](C(=O)O)C([C@@H](C2)N13)N4C` (stereo not given in full), the GI50 is 0.593 µM in experiment [10]; 1.87 µM in experiment [1]; 6.06 µM and 0.803 µM in [3]; 3.92 µM and 1.72 µM in experiment [5]; 3.61 µM in [6]; 1.13 µM in [9]. In addition, the TGI in [10] was 8.08 µM and 1.2 µM; in experiment [1], 5.94 µM and 6.16 µM; in [3], 7.84 µM and 1.75 µM; in experiment [5] it was 9.75 µM and 5.44 µM; in experiment [6], 8.4 µM and 5.82 µM; in experiment [7], 6.35 µM. Besides, the TGI is 0.204 µM in [8]; 7.43 µM and > 32 µM in experiment [9].
Turning to `O=C(Nc1ccccc1Cl)c1cccc(NC2=C(Cl)C(=O)N(Cc3ccccc3)C2=O)c1`, the GI50 in [10] was 20.5 µM; in experiment [1], 88.3 µM; in [2] it was 3.18 µM; in experiment [3] it was over 100 µM; in experiment [4] it was 19.8 µM; in experiment [6], 26.1 µM. Moreover, the results for the GI50 in experiment [7], in [8] and in experiment [9] were 9.32 µM, 3.05 µM and 18.6 µM, respectively. For the same molecule, the TGI in experiment [10] is 54.5 µM; in [1], over 100 µM; in [2], 13.3 µM; in [3], over 100 µM; in [4], over 100 µM; in experiment [6], over 100 µM. The results for the TGI in experiment [7], in experiment [8] and in [9] were 29.5 µM, 10.3 µM and 58.6 µM, respectively.
Take `OCc1ccc(N2CCCC2)cc1Cl`: the GI50 in [10] is 15.7 µM; in [2], 1.6 µM; in experiment [3] it was 27.3 µM; in experiment [4], 7.9 µM; in [5], 10.2 µM; in experiment [6], 10.7 µM. The figures for the GI50 in [7], in experiment [8] and in [9] were over 100 µM, over 100 µM and over 61.3 µM, respectively. Moreover, the TGI in experiment [10] is 69.9 µM; in experiment [2], over 100 µM; in experiment [3], over 90.6 µM; in experiment [4] it was 76.4 µM; in experiment [5], over 100 µM; in experiment [6] it was over 100 µM. Further, the TGI in experiment [7], in experiment [8] and in [9] was over 100 µM each time.
In the case of `Cc1cc(NC(=O)c2cnc(N3CCN(CCOCCOCCOCCOCCC(=O)N[C@H](C(=O)N4C[C@H](O)C[C@H]4C(=O)N[C@@H](C)c4ccc(-c5scnc5C)cc4)C(C)(C)C)CC3)cn2)c2ncccc2c1`, the GI50 in experiment [10] was 1.75 µM; in experiment [1] it was 4.9 µM; in experiment [2], 1.79 µM; in experiment [3], 8.5 µM; in experiment [4], 2.54 µM; in experiment [6], 2.38 µM. For the same molecule, the GI50 in experiment [7] is 2.19 µM; in experiment [8], 2.25 µM; in [9], 3.02 µM. The TGI in experiment [10] is 3.25 µM; in [1], over 100 µM; in [2], 3.38 µM; in [3] it was over 100 µM; in [4], 7.63 µM; in experiment [6], 5.65 µM. In addition, the results for the TGI in [7], in experiment [8] and in [9] were 4.94 µM, 5.38 µM and 18.3 µM, respectively.
Consider `NCCC(=O)NC(Cc1cnc[nH]1)C(=O)O` (stereo not given), for which the TGI in [10], in experiment [1], in experiment [2], in experiment [4], in experiment [5] and in [6] was over 100 µM in each case. In addition, the TGI in experiment [7], in experiment [8] and in [9] was over 100 µM in each case.
Regarding `Clc1ccccc1NN(Cc1ccncc1)c1ccccc1Cl`, the TGI in [1] turned out to be 30.1 µM; in experiment [2], 25.7 µM; in [3], 44.9 µM; in experiment [4] it was 26.1 µM; in [5] it was 29.2 µM; in experiment [6] it was 35.1 µM. Besides, the TGI in experiment [7] came out at 35.7 µM; in experiment [8], 29.7 µM; in experiment [9], 36.2 µM.
For the molecule `CCSc1nc(N)c(C#N)c(-c2ccco2)c1C#N`, the GI50 in [1] was 25.4 µM; in experiment [2], 26.8 µM; in experiment [3], 53.3 µM; in experiment [4], 56.4 µM; in [5] it was 80.9 µM; in [6] it was 42.2 µM. Moreover, the GI50 in experiment [7] was 48.1 µM; in [8] it was 25.2 µM; in experiment [9] it was 32.1 µM. Also, the TGI in experiment [1], in experiment [2], in experiment [3], in experiment [4], in [5] and in experiment [6] was over 100 µM throughout. Besides, the TGI was over 100 µM in [7], 66.1 µM in experiment [8] and over 100 µM in experiment [9].
